PubChem BioAssay (NCI)
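Each compound was tested at five concentrations against cells in 96-well plates for 48 hours. TGI: total growth inhibition.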

Legend:
Experiment in all cases: growth of human tumour cells (NCI), 48 h
MDA-MB-435 = test system: MDA-MB-435
OVCAR-5 ovarian = test system: OVCAR-5 ovarian
HCT-15 colon = test system: HCT-15 colon
DU-145 prostate = test system: DU-145 prostate
CAKI-1 renal = test system: CAKI-1 renal
SR leukemia = test system: SR leukemia
SK-MEL-5 melanoma = test system: SK-MEL-5 melanoma
NCI/ADR-RES ovarian = test system: NCI/ADR-RES ovarian
MCF7 breast = test system: MCF7 breast
MDA-N = test system: MDA-N
SK-MEL-2 melanoma = test system: SK-MEL-2 melanoma
COLO 205 colon = test system: COLO 205 colon
786-0 renal = test system: 786-0 renal
BT-549 breast = test system: BT-549 breast
TK-10 renal = test system: TK-10 renal
SF-539 CNS = test system: SF-539 CNS
LOX IMVI melanoma = test system: LOX IMVI melanoma
HT29 colon = test system: HT29 colon
MOLT-4 leukemia = test system: MOLT-4 leukemia
A549 NSCLC = test system: A549 NSCLC

## C=C(C(=O)O)[C@@H]1C[C@@H](OC(C)=O)[C@]2(C)CC/C=C(\C)CCC[C@H](C)[C@H](O)[C@@H]1O2
MDA-MB-435
  TGI: 59.1 µM
OVCAR-5 ovarian
  TGI: > 100 µM
HCT-15 colon
  TGI: > 100 µM
DU-145 prostate
  TGI: > 100 µM
CAKI-1 renal
  TGI: > 100 µM
SR leukemia
  TGI: 65.1 µM
SK-MEL-5 melanoma
  TGI: > 100 µM
NCI/ADR-RES ovarian
  TGI: > 100 µM
MCF7 breast
  TGI: > 100 µM
MDA-N
  TGI: 64.2 µM
SK-MEL-2 melanoma
  TGI: > 100 µM
COLO 205 colon
  TGI: > 100 µM
786-0 renal
  TGI: > 100 µM
BT-549 breast
  TGI: > 100 µM
TK-10 renal
  TGI: > 100 µM
SF-539 CNS
  TGI: 35.7 µM
LOX IMVI melanoma
  TGI: > 100 µM
HT29 colon
  TGI: > 100 µM
MOLT-4 leukemia
  TGI: 72.1 µM
A549 NSCLC
  TGI: > 100 µM

## C=CC1C(OC2OC(CO)C(O)C(O)C2O)OC=C(C(=O)OC)C1CC1CC(=O)CC(CCc2ccc(O)cc2)O1 (stereo not drawn)
MDA-MB-435
  TGI: > 100 µM
OVCAR-5 ovarian
  TGI: > 100 µM
HCT-15 colon
  TGI: > 100 µM
DU-145 prostate
  TGI: > 100 µM
CAKI-1 renal
  TGI: > 100 µM
SR leukemia
  TGI: > 100 µM
SK-MEL-5 melanoma
  TGI: > 100 µM
NCI/ADR-RES ovarian
  TGI: > 100 µM
MCF7 breast
  TGI: > 100 µM
MDA-N
  TGI: > 100 µM
SK-MEL-2 melanoma
  TGI: > 100 µM
COLO 205 colon
  TGI: > 100 µM
786-0 renal
  TGI: > 100 µM
BT-549 breast
  TGI: > 100 µM
TK-10 renal
  TGI: > 100 µM
SF-539 CNS
  TGI: > 100 µM
LOX IMVI melanoma
  TGI: > 100 µM
HT29 colon
  TGI: > 100 µM
MOLT-4 leukemia
  TGI: > 100 µM
A549 NSCLC
  TGI: > 100 µM

## COC(=O)c1c(C#N)[nH]c(-c2ccsc2)c1C(=O)OC
MDA-MB-435
  TGI: > 100 µM
OVCAR-5 ovarian
  TGI: > 100 µM
DU-145 prostate
  TGI: > 100 µM
CAKI-1 renal
  TGI: > 100 µM
SR leukemia
  TGI: > 100 µM
SK-MEL-5 melanoma
  TGI: > 100 µM
NCI/ADR-RES ovarian
  TGI: > 100 µM
MCF7 breast
  TGI: > 100 µM
MDA-N
  TGI: > 100 µM
SK-MEL-2 melanoma
  TGI: > 100 µM
COLO 205 colon
  TGI: > 100 µM
786-0 renal
  TGI: > 100 µM
BT-549 breast
  TGI: > 100 µM
TK-10 renal
  TGI: > 100 µM
LOX IMVI melanoma
  TGI: > 100 µM
HT29 colon
  TGI: > 100 µM
MOLT-4 leukemia
  TGI: > 100 µM
A549 NSCLC
  TGI: > 100 µM

## O=C(NCCCl)N(O)C(=O)Nc1ccccc1
MDA-MB-435
  TGI: > 100 µM
OVCAR-5 ovarian
  TGI: > 100 µM
HCT-15 colon
  TGI: > 100 µM
DU-145 prostate
  TGI: > 100 µM
CAKI-1 renal
  TGI: > 100 µM
SR leukemia
  TGI: > 100 µM
SK-MEL-5 melanoma
  TGI: > 100 µM
NCI/ADR-RES ovarian
  TGI: > 100 µM
MCF7 breast
  TGI: > 100 µM
MDA-N
  TGI: > 100 µM
SK-MEL-2 melanoma
  TGI: > 100 µM
COLO 205 colon
  TGI: > 100 µM
786-0 renal
  TGI: > 100 µM
BT-549 breast
  TGI: > 100 µM
TK-10 renal
  TGI: > 100 µM
SF-539 CNS
  TGI: > 100 µM
LOX IMVI melanoma
  TGI: > 100 µM
HT29 colon
  TGI: > 100 µM
MOLT-4 leukemia
  TGI: > 100 µM
A549 NSCLC
  TGI: > 100 µM

## COc1c(OC(C)=O)c(OC(C)=O)cc2c1-c1ccc(SC)c(=O)cc1C(NC(C)=O)CC2 (stereo not drawn)
MDA-MB-435
  TGI: 0.632 µM
OVCAR-5 ovarian
  TGI: > 100 µM
HCT-15 colon
  TGI: > 97.5 µM
DU-145 prostate
  TGI: 4.12 µM
CAKI-1 renal
  TGI: > 87.1 µM
SR leukemia
  TGI: > 100 µM
SK-MEL-5 melanoma
  TGI: 0.794 µM
NCI/ADR-RES ovarian
  TGI: > 100 µM
MCF7 breast
  TGI: > 100 µM
MDA-N
  TGI: 0.576 µM
SK-MEL-2 melanoma
  TGI: > 100 µM
COLO 205 colon
  TGI: 4.32 µM
786-0 renal
  TGI: > 100 µM
BT-549 breast
  TGI: > 100 µM
TK-10 renal
  TGI: > 96.3 µM
SF-539 CNS
  TGI: 0.846 µM
LOX IMVI melanoma
  TGI: > 100 µM
HT29 colon
  TGI: > 100 µM
MOLT-4 leukemia
  TGI: > 100 µM
A549 NSCLC
  TGI: > 100 µM

## COc1cccc2cc(C(=O)O)c(=O)oc12
MDA-MB-435
  TGI: > 100 µM
OVCAR-5 ovarian
  TGI: > 100 µM
HCT-15 colon
  TGI: > 100 µM
DU-145 prostate
  TGI: > 100 µM
CAKI-1 renal
  TGI: > 100 µM
SR leukemia
  TGI: > 100 µM
SK-MEL-5 melanoma
  TGI: > 100 µM
NCI/ADR-RES ovarian
  TGI: > 100 µM
MCF7 breast
  TGI: > 100 µM
MDA-N
  TGI: > 100 µM
SK-MEL-2 melanoma
  TGI: > 100 µM
COLO 205 colon
  TGI: > 100 µM
786-0 renal
  TGI: > 100 µM
BT-549 breast
  TGI: > 100 µM
TK-10 renal
  TGI: > 100 µM
SF-539 CNS
  TGI: > 100 µM
LOX IMVI melanoma
  TGI: > 100 µM
HT29 colon
  TGI: > 100 µM
MOLT-4 leukemia
  TGI: > 100 µM
A549 NSCLC
  TGI: > 100 µM

## Cc1nc2ccc(NC(=S)Nc3ccccc3)cc2c(=O)n1-c1ccccc1
MDA-MB-435
  TGI: > 100 µM
OVCAR-5 ovarian
  TGI: > 100 µM
HCT-15 colon
  TGI: > 100 µM
DU-145 prostate
  TGI: > 100 µM
CAKI-1 renal
  TGI: > 100 µM
SR leukemia
  TGI: > 100 µM
SK-MEL-5 melanoma
  TGI: > 100 µM
NCI/ADR-RES ovarian
  TGI: > 100 µM
MCF7 breast
  TGI: > 100 µM
MDA-N
  TGI: > 100 µM
SK-MEL-2 melanoma
  TGI: > 100 µM
COLO 205 colon
  TGI: > 100 µM
786-0 renal
  TGI: > 100 µM
BT-549 breast
  TGI: > 100 µM
TK-10 renal
  TGI: > 100 µM
LOX IMVI melanoma
  TGI: > 100 µM
HT29 colon
  TGI: > 100 µM
MOLT-4 leukemia
  TGI: > 100 µM

## CCOC(=O)c1nc2ccc(C(F)(F)F)cc2[nH]c1=O
MDA-MB-435
  TGI: > 100 µM
OVCAR-5 ovarian
  TGI: > 100 µM
HCT-15 colon
  TGI: > 100 µM
DU-145 prostate
  TGI: > 100 µM
CAKI-1 renal
  TGI: > 100 µM
SR leukemia
  TGI: > 100 µM
SK-MEL-5 melanoma
  TGI: > 100 µM
NCI/ADR-RES ovarian
  TGI: > 100 µM
MCF7 breast
  TGI: > 100 µM
MDA-N
  TGI: > 100 µM
SK-MEL-2 melanoma
  TGI: > 100 µM
COLO 205 colon
  TGI: > 100 µM
786-0 renal
  TGI: > 100 µM
BT-549 breast
  TGI: > 100 µM
TK-10 renal
  TGI: > 100 µM
SF-539 CNS
  TGI: > 100 µM
LOX IMVI melanoma
  TGI: > 100 µM
HT29 colon
  TGI: > 100 µM
MOLT-4 leukemia
  TGI: > 100 µM
A549 NSCLC
  TGI: > 100 µM

## O=C(O)c1nc2ccc(C(F)(F)F)cc2nc1NCc1ccc(F)cc1
MDA-MB-435
  TGI: > 100 µM
OVCAR-5 ovarian
  TGI: 42.5 µM
HCT-15 colon
  TGI: 87.5 µM
DU-145 prostate
  TGI: > 100 µM
CAKI-1 renal
  TGI: > 100 µM
SR leukemia
  TGI: 42 µM
SK-MEL-5 melanoma
  TGI: 35.2 µM
NCI/ADR-RES ovarian
  TGI: > 100 µM
MCF7 breast
  TGI: 68.8 µM
MDA-N
  TGI: 76.9 µM
SK-MEL-2 melanoma
  TGI: 45.1 µM
COLO 205 colon
  TGI: 44.6 µM
786-0 renal
  TGI: 28 µM
BT-549 breast
  TGI: 90.2 µM
SF-539 CNS
  TGI: 43.5 µM
LOX IMVI melanoma
  TGI: 36.5 µM
MOLT-4 leukemia
  TGI: 33.2 µM
A549 NSCLC
  TGI: 42.2 µM

## CN(C)CC1CCC/C(=C\c2ccc(Cl)cc2)C1=O (stereo not drawn)
MDA-MB-435
  TGI: 9.22 µM
OVCAR-5 ovarian
  TGI: 35.6 µM
HCT-15 colon
  TGI: 4.86 µM
DU-145 prostate
  TGI: 29.1 µM
CAKI-1 renal
  TGI: 3.72 µM
SR leukemia
  TGI: > 100 µM
SK-MEL-5 melanoma
  TGI: 12.3 µM
NCI/ADR-RES ovarian
  TGI: 18.9 µM
MCF7 breast
  TGI: 3.38 µM
MDA-N
  TGI: 5.17 µM
SK-MEL-2 melanoma
  TGI: 2.05 µM
COLO 205 colon
  TGI: 4.82 µM
786-0 renal
  TGI: 3.22 µM
BT-549 breast
  TGI: 3.45 µM
TK-10 renal
  TGI: 10 µM
SF-539 CNS
  TGI: 29.1 µM
LOX IMVI melanoma
  TGI: 3.25 µM
HT29 colon
  TGI: > 32.7 µM
MOLT-4 leukemia
  TGI: > 21.7 µM
A549 NSCLC
  TGI: 32.4 µM

## COC(=O)[C@H](Cc1c[nH]c2ccccc12)NC(=O)c1ccc(CNC(=O)/C(C)=C/c2ccccc2)cc1
MDA-MB-435
  TGI: > 100 µM
OVCAR-5 ovarian
  TGI: > 100 µM
HCT-15 colon
  TGI: > 100 µM
DU-145 prostate
  TGI: > 100 µM
CAKI-1 renal
  TGI: > 100 µM
SR leukemia
  TGI: > 100 µM
SK-MEL-5 melanoma
  TGI: 33.2 µM
NCI/ADR-RES ovarian
  TGI: > 100 µM
MCF7 breast
  TGI: > 100 µM
MDA-N
  TGI: 40.3 µM
SK-MEL-2 melanoma
  TGI: 27.2 µM
COLO 205 colon
  TGI: 50.5 µM
786-0 renal
  TGI: > 100 µM
BT-549 breast
  TGI: > 100 µM
TK-10 renal
  TGI: > 100 µM
SF-539 CNS
  TGI: > 100 µM
LOX IMVI melanoma
  TGI: > 100 µM
HT29 colon
  TGI: > 100 µM
MOLT-4 leukemia
  TGI: > 100 µM
A549 NSCLC
  TGI: > 100 µM

## CN1C(=O)c2ccccc2OC12C=Cc1ccc(O)cc1O2 (stereo not drawn)
MDA-MB-435
  TGI: 85.3 µM
OVCAR-5 ovarian
  TGI: > 100 µM
HCT-15 colon
  TGI: > 100 µM
DU-145 prostate
  TGI: 69.7 µM
CAKI-1 renal
  TGI: 58 µM
SR leukemia
  TGI: 27.4 µM
SK-MEL-5 melanoma
  TGI: 37.6 µM
NCI/ADR-RES ovarian
  TGI: 40.4 µM
MCF7 breast
  TGI: > 100 µM
MDA-N
  TGI: > 100 µM
SK-MEL-2 melanoma
  TGI: 56.1 µM
COLO 205 colon
  TGI: 65.1 µM
786-0 renal
  TGI: > 100 µM
BT-549 breast
  TGI: 85.5 µM
TK-10 renal
  TGI: > 100 µM
LOX IMVI melanoma
  TGI: 26.8 µM
HT29 colon
  TGI: 57.2 µM
MOLT-4 leukemia
  TGI: 58.7 µM
A549 NSCLC
  TGI: > 100 µM
